The text below walks through data of article PMC6155628 (Molecules : A Journal of Synthetic Chemistry and Natural …, 2017).

In one assay the test system is ACE. Particulars: read-out: IC50 (ACE inhibition), cited from earlier work.
The next assay deals with SHR. The conditions noted are these: cited from earlier work.
The subject of assay [1] is spontaneously hypertensive rats (SHR). The conditions noted are these: oral, dose not given, 4 h after administration, tail-cuff, n = 6.
The subject of assay [2] is Ehrlich ascites sarcoma cells. The conditions noted are these: Ehrlich ascites sarcoma cells in mice; cited from earlier work. An excerpt: Adlay seed (soft-shelled Job’s tears, Coix larchryma-jobi L. var. ma-yuen Stapf) has been used in traditional Chinese medicine and has been a nourishing food for more than a thousand years. It has been used to treat warts, chapped skin, rheumatism, neuralgia, hypertension as well as being an anti-inflammatory and anticancer agent. An increasing effort had been concentrated on finding active components from adlay. […] The main ingredient of ...

Assay [3] has as its target Angiotensin converting enzyme (ACE) (Homo sapiens, UniProt P12821). As to the kind of experiment: biochemical.
The mark [4] stands for this setting: from haruan myofibrillar protein hydrolysate (proteinase K and thermolysin).

Read-outs that look alike come from different tables or passages of the source. Residues, ends and D or L forms follow the SMILES beside them.

Chain of Angiotensin converting enzyme (ACE) (P12821 30-1306, species assumed): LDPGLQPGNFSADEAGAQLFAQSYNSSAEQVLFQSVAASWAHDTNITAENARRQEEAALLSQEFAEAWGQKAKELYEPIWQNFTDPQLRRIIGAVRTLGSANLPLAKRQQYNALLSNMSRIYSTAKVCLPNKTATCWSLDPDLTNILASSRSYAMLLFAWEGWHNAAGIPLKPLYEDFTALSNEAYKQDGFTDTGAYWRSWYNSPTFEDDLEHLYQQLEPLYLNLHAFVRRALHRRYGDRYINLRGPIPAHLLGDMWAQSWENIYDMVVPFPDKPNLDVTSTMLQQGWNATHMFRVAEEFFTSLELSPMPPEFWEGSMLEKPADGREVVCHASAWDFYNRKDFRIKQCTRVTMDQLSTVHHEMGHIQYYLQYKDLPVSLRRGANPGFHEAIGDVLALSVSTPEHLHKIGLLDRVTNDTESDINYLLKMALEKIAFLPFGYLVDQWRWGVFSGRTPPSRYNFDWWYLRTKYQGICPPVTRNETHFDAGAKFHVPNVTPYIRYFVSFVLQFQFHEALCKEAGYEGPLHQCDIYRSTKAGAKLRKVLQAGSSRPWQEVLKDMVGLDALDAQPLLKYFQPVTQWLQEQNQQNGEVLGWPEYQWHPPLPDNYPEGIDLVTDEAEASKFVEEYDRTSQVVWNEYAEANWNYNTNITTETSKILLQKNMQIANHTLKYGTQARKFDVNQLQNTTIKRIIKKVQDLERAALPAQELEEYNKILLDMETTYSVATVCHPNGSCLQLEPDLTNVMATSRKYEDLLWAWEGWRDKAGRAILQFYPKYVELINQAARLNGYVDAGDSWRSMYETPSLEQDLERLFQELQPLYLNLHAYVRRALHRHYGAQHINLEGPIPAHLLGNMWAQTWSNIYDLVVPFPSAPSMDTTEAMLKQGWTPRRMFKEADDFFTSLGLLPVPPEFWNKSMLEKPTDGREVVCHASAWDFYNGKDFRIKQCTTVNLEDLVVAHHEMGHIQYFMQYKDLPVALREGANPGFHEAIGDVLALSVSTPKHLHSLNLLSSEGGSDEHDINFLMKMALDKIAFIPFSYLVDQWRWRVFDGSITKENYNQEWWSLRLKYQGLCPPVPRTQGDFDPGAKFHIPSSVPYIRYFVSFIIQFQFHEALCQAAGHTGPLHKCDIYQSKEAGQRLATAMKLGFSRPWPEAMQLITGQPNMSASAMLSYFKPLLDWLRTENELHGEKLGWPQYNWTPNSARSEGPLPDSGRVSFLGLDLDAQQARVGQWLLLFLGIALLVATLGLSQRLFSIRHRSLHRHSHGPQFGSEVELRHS

In the case of VPAAPPK, the IC50 in the assay on ACE (setting [4]) was 0.45 µM.
With NGTWFEPP, in the assay with ACE (setting [4]), the IC50 is 0.63 µM.
Ala-Tyr: the IC50 in the assay with ACE (from corn gluten meal) is 14.2 µM.
As for AAATP, the “Decrease of SBP” value in the assay on SHR (SHRs, after 8 h administration, from Spanish dry-cured ham) is “around 25.62 mmHg”.
AWLHPGAPKVF: the Antihypertensive duration with SHR (single oral, 10 mg/kg) is on record as 8 h. Besides, the “Reduction of SBP” value with SHR (single oral, 10 mg/kg, from P. esculenta protein hydrolysate) is “around 30 mmHg”.
Turning to `C[C@H](CS)C(=O)N1CCC[C@H]1C(=O)O` [captopril], in assay [1], the “Maximal decrease of SBP, positive control” value is recorded as “approximately 28.17 mmHg”.
As for coixenolide [coixenolide (I)], in assay [2], the Growth-inhibiting activity entry is listed as “growth-inhibiting activity”.
In the case of `C[C@H](NC(=O)CN)C(=O)N[C@@H](C)C(=O)NCC(=O)NCC(=O)N[C@@H](C)C(=O)N[C@@H](Cc1ccccc1)C(=O)O` [GAAGGAF] (H-GAAGGAF-OH), the half-inhibitory concentration (IC50) in assay [3] came to 14.2 µM.
